Data from patent US11518750B2, “3-methylideneoxan-4-one compounds and substituted derivatives thereof as inhibitors of telomerase” (NORTHWESTERN UNIVERSITY, priority 2019, dated 2022).

Tested on: tcTERT
Assay: Protease digestion and mass spectrometry of treated tcTERT
Type: binding, Tribolium castaneum
Details: proteolysis and tandem mass spectrometry
Experimental: Protease Digestion and Mass Spectrometry Analysis. tcTERT (50 μg, ˜600 pmol) was treated with chrolactomycin, NU-1, helenalin, costunolide or DMSO for 1 hr at 37° C. The reaction was diluted with ammonium bicarbonate buffer (pH 8.0), then reduced for 30 min at 56° C. with 10 mM DTT. After cooling to 23° C., the protein was alkylated with 25 mM iodoacetamide for 30 min at 23° C. in the dark, followed by trypsin digestion (2.5 μg, Promega) overnight at 37° C. Digested peptides (˜2 pmol) were injected onto a self-packed precolumn (4 cm POROS10R2) and eluted into the mass spectrometer (LTQ Orbitrap Velos, Thermo Fisher). Peptides were subjected to MS^2 by CAD (electron multiplier detection, relative collision energy 35%, q=0.25).

SMILES: C=C1C(=O)[C@](C)(C(=O)OC)[C@H](CCc2cn(Cc3ccc(F)cc3F)nn2)O[C@@H]1C [NU-1, methyl (2S,3R,6R)-2-(2-(1-(2,4-difluorobenzyl)-1H-1,2,3-triazol-4-yl)ethyl)-3,6-dimethyl-5 methylene-4-oxotetrahydro-2H-pyran-3-carboxylate]
- adduct formation with tcTERT peptides: single modified peptide
